pIC50: −log10 of the molar value.
How the values were obtained:
[1] = biological target: activated p38 (Homo sapiens, UniProt Q16539); experiment: Inhibition of phosphorylation of EGF receptor peptide ("kinase"); format: biochemical; conditions: inhibition of phosphorylation of EGF receptor peptide by activated p38
How it was run: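 Activated p38 was preincubated with inhibitor for 15 min at room temperature in 100 mM HEPES pH 7.6, 10 mM MgCl2, 25 mM β-glycerophosphate, 10% glycerol, 5% DMSO final. Reaction used 200 μM EGF receptor peptide and 100 μM ATP for 30 min at 30° C. TFA-quenched phosphopeptide was quantified by reverse-phase HPLC.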

[2] = tested on: TNF production in whole blood; experiment: Inhibition of TNF production in LPS-stimulated whole blood ("WB"); format: cell-based, human; conditions: Homo sapiens
Experimental: (§1) Inhibitors were serially diluted in DMSO from a 20 mM stock. At least 6 serial dilutions were prepared. Then 4× inhibitor stocks were prepared by adding 4 μl of an inhibitor dilution to 1 ml of RPMI1640 medium/10% fetal bovine serum. The 4× inhibitor stocks contained inhibitor at concentrations of 80 μM, 32 μM, 12.8 μM, 5.12 μM, 2.048 μM, 0.819 μM, 0.328 μM, 0.131 μM, 0.052 μM, 0.021 μM etc. The 4× inhibitor stocks were pre-warmed at 37° C. until use.
(§2) Alternatively, whole blood containing an anti-coagulant was used directly in the assay.
(§3) We placed 100 μl of cell suspension or whole blood in each well of a 96-well cell culture plate. Then we added 50 μl of the 4× inhibitor stock to the cells. Finally, we added 50 μl of a lipopolysaccharide (LPS) working stock solution (16 ng/ml in cell culture medium) to give a final concentration of 4 ng/ml LPS in the assay. The total assay volume of the vehicle control was also adjusted to 200 μl by adding 50 μl cell culture medium. The PBMC cells or whole blood were then incubated overnight (for 12–15 hours) at 37° C./5% CO2 in a humidified atmosphere.
(§4) The next day the cells were mixed on a shaker for 3–5 minutes before centrifugation at 500×g for 5 minutes. Cell culture supernatants were harvested and analyzed by ELISA for levels of IL-1b (R & D Systems, Quantikine kits, #DBL50), TNF-α (BioSource, #KHC3012), IL-6 (Endogen, #EH2-IL6) and IL-8 (Endogen, #EH2-IL8) according to the instructions of the manufacturer. The ELISA data were used to generate dose-response curves from which IC50 values were derived.

[3] = tested on: IL-1 production in LPS-stimulated PBMCs; experiment: Inhibition of IL-1 production in LPS-stimulated PBMCs ("cell"); format: cell-based, human; conditions: Homo sapiens, PBMC
Experimental: as §1
(§5) Fresh human blood buffy cells were separated from other cells in a Vacutainer CPT from Becton & Dickinson (containing 4 ml blood and enough DPBS without Mg^2+/Ca^2+ to fill the tube) by centrifugation at 1500×g for 15 min. Peripheral blood mononuclear cells (PBMCs), located on top of the gradient in the Vacutainer, were removed and washed twice with RPMI1640 medium/10% fetal bovine serum. PBMCs were collected by centrifugation at 500×g for 10 min. The total cell number was determined using a Neubauer Cell Chamber and the cells were adjusted to a concentration of 4.8×10^6 cells/ml in cell culture medium (RPMI1640 supplemented with 10% fetal bovine serum).
as §3, §4

[4] = tested on: TNF production in LPS-stimulated PBMCs; experiment: Inhibition of TNF production in LPS-stimulated PBMCs ("cell"); format: cell-based, human; conditions: Homo sapiens, PBMC
Experimental: as §1, §5, §3, §4

[5] = tested on: IL-1 production in whole blood; experiment: Inhibition of IL-1 production in LPS-stimulated whole blood ("WB"); format: cell-based, human; conditions: Homo sapiens
Experimental: as §1, §2, §3, §4

[6] = tested on: IL-6 production in whole blood; experiment: Inhibition of IL-6 production in LPS-stimulated whole blood ("WB"); format: cell-based, human; conditions: Homo sapiens
Experimental: as §1, §2, §3, §4

Chain of activated p38 (Q16539 whole entry): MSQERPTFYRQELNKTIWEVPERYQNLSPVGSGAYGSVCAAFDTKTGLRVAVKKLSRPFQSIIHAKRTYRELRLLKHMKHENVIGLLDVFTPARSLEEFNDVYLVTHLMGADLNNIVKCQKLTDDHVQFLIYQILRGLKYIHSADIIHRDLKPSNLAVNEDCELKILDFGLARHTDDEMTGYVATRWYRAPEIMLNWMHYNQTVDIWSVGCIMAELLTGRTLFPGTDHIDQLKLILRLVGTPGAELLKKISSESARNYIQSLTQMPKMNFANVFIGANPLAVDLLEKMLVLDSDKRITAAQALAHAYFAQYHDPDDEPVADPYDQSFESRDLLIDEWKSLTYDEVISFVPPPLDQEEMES

In the case of `O=C1NCN2N=C(Sc3ccccc3C(=O)O)C=CC2=C1c1c(Cl)cccc1Cl` [Compound 104], the pIC50 [1] was 6.00 to 7.00, the pIC50 [2] was at most 6.30 and the pIC50 [3] was 6.30 to 7.00. The pIC50 [4] was 6.30 to 7.00, the pIC50 [5] was at most 6.30 and the pIC50 [6] was at most 6.30.
Compound `Cc1cc(Cl)ccc1SC1=NN2CNC(=O)C(c3c(Cl)cccc3Cl)=C2C=C1` [Compound 106] has a pIC50 [1] of at least 7.00, a pIC50 [2] of 6.30 to 6.60 and a pIC50 [3] of at least 7.00. For the same compound, the pIC50 [4] was at least 7.00, the pIC50 [5] was at most 6.30 and the pIC50 [6] was 6.30 to 6.60.
For `O=C1NCN2N=C(Sc3ccccc3CO)C=CC2=C1c1c(Cl)cccc1Cl` [Compound 108], the pIC50 [1] was at least 7.00, the pIC50 [2] was at least 6.60 and the pIC50 [3] was 6.30 to 7.00. For the same compound, the pIC50 [4] was at least 7.00, the pIC50 [5] was 6.30 to 6.60 and the pIC50 [6] was at least 6.60.
In the case of `O=C1NCN2N=C(Sc3ccccc3Br)C=CC2=C1c1c(Cl)cccc1Cl` [Compound 109], the pIC50 [1] was at least 7.00, the pIC50 [2] was at most 6.30 and the pIC50 [3] was at least 7.00. For the same compound, the pIC50 [4] was at least 7.00, the pIC50 [5] was at most 6.30 and the pIC50 [6] was 6.30 to 6.60.
`CC(C)(C)OC(=O)Nc1ccccc1SC1=NN2CNC(=O)C(c3c(Cl)cccc3Cl)=C2C=C1` [Compound 112] was tested, and the pIC50 [1] was 6.00 to 7.00, the pIC50 [2] was at most 6.30 and the pIC50 [3] was 6.30 to 7.00. The pIC50 [4] was at most 6.30, the pIC50 [5] was at most 6.30 and the pIC50 [6] was at most 6.30.
In the case of `Cc1ccc(SC2=NN3CNC(=O)C(c4c(Cl)cccc4Cl)=C3C=C2)c(C)c1` [Compound 113], the pIC50 [1] was at least 7.00, the pIC50 [2] was at most 6.30 and the pIC50 [3] was at least 7.00. It also gave a pIC50 [4] of 6.30 to 7.00, a pIC50 [5] of at most 6.30 and a pIC50 [6] of at most 6.30.
In the case of `O=C1NCN2N=C(Sc3ccccc3O)C=CC2=C1c1c(Cl)cccc1Cl` [Compound 114], the pIC50 [1] was at least 7.00, the pIC50 [2] was 6.30 to 6.60 and the pIC50 [3] was at least 7.00. For the same compound, the pIC50 [4] was at least 7.00, the pIC50 [5] was 6.30 to 6.60 and the pIC50 [6] was at least 6.60.
For `Nc1ccccc1SC1=NN2CNC(=O)C(c3c(Cl)cccc3Cl)=C2C=C1` [Compound 115], the pIC50 [1] was at least 7.00, the pIC50 [2] was at most 6.30 and the pIC50 [3] was at least 7.00. The pIC50 [4] was at least 7.00, the pIC50 [5] was at most 6.30 and the pIC50 [6] was at most 6.30.
`N#Cc1ccccc1SC1=NN2CNC(=O)C(c3c(Cl)cccc3Cl)=C2C=C1` [Compound 116] showed a pIC50 [1] of at least 7.00, a pIC50 [2] of at most 6.30 and a pIC50 [3] of at least 7.00. It also gave a pIC50 [4] of 6.30 to 7.00, a pIC50 [5] of at most 6.30 and a pIC50 [6] of at most 6.30.
Work on `Nc1cc(F)ccc1SC1=NN2CNC(=O)C(c3c(Cl)cccc3Cl)=C2C=C1` [Compound 117] yielded a pIC50 [1] of at least 7.00, a pIC50 [2] of 6.30 to 6.60 and a pIC50 [3] of at least 7.00. For the same compound, the pIC50 [4] was at least 7.00, the pIC50 [5] was 6.30 to 6.60 and the pIC50 [6] was at least 6.60.
`NCc1ccccc1SC1=NN2CNC(=O)C(c3c(Cl)cccc3Cl)=C2C=C1` [Compound 118] was tested, and the pIC50 [1] was 6.00 to 7.00, the pIC50 [2] was at most 6.30 and the pIC50 [3] was 6.30 to 7.00. The pIC50 [4] was 6.30 to 7.00, the pIC50 [5] was at most 6.30 and the pIC50 [6] was at most 6.30.
Compound `COc1ccc(C2=C3C=CC(Sc4ccc(F)cc4)=NN3CNC2=O)c(Cl)c1OC` [Compound 121] has a pIC50 [1] of at least 7.00, a pIC50 [2] of at most 6.30 and a pIC50 [3] of at least 7.00. The pIC50 [4] was 6.30 to 7.00, the pIC50 [5] was at most 6.30 and the pIC50 [6] was at most 6.30.
`Nc1ccc(F)cc1SC1=NN2CNC(=O)C(c3c(Cl)cccc3Cl)=C2C=C1` [Compound 122] showed a pIC50 [1] of 6.00 to 7.00, a pIC50 [2] of at most 6.30 and a pIC50 [3] of 6.30 to 7.00. It also gave a pIC50 [4] of at most 6.30, a pIC50 [5] of at most 6.30 and a pIC50 [6] of at most 6.30.
In the case of `O=C1NCN2N=C(Sc3ccccc3CNc3ncc[nH]3)C=CC2=C1c1c(Cl)cccc1Cl` [Compound 123], the pIC50 [1] was 6.00 to 7.00, the pIC50 [2] was at most 6.30 and the pIC50 [3] was 6.30 to 7.00. It also gave a pIC50 [4] of 6.30 to 7.00, a pIC50 [5] of at most 6.30 and a pIC50 [6] of at most 6.30.
`Nc1ccc(Cl)c(C2=C3C=CC(Sc4ccc(F)cc4)=NN3CNC2=O)c1Cl` [Compound 125] gave a pIC50 [1] of at least 7.00, a pIC50 [2] of at most 6.30 and a pIC50 [3] of at least 7.00. The pIC50 [4] was at least 7.00, the pIC50 [5] was at most 6.30 and the pIC50 [6] was at most 6.30.
For `O=C1NCN2N=C(Sc3ccc(F)cc3Cl)C=CC2=C1c1c(Cl)cccc1Cl` [Compound 127], the pIC50 [1] was at least 7.00, the pIC50 [2] was 6.30 to 6.60 and the pIC50 [3] was at least 7.00. The pIC50 [4] was at least 7.00, the pIC50 [5] was 6.30 to 6.60 and the pIC50 [6] was at least 6.60.

Reference: patent US7205305B2, “Inhibitors of p38” (Vertex Pharmaceuticals Incorporated, priority 1996, dated 2007)
